How the values were obtained:
[1] = system: Hras5 tumours (NIH 3T3 fibroblasts transfected with Harvey ras, clone 5) in nude mice; experiment: Hras5 necrosis model; format: in vivo; conditions: 25 mg/kg; single dose, culled 24 hours after dosing; male nude mice
Experimental: NIH 3T3 fibroblasts transfected with Harvey ras, clone 5, (Hras5 cells) were kept in continual passage in Dulbecco's modifed Eagles medium (DMEM) containing 10% foetal bovine serum (FBS) and 1% glutamine, at 37° C. in a humidified incubator gassed with 7.5% carbon dioxide and 92.5% […]. Cells were implanted subcutaneously into the left flank of male nude mice (8-10 weeks of age) at an inoculum of 2×10^5 cells/mouse. Tumours were measured using calipers and randomised into groups of 2-4 mice between days 9-14 after implant. Mice were dosed with compounds, either intravenously or intraperitoneally, once on day of randomisation and culled 24 hours after dosing. Compounds were dissolved in 20% hydroxypropyl beta cyclodextrin in physiological saline at pH 7 and dosed in a volume of 0.1 ml per 10 g body weight. Tumours were excised, weighed and placed in buffered formalin. Area of necrosis in individual tumours was assessed from a haematoxylin/eosin stained-slide by a pathologist and scored from 0, meaning no significant change, to 10, meaning 91-100% necrosis. The activity of examples 5 and 7 (described hereinafter) against tumour vasculature was measured by the fluorescent dye method described hereinabove. Example 1 scored 6.6 at 25 mg/kg.

[2] = system: tumour vasculature in CaNT tumour-bearing mice; experiment: Activity against tumour vasculature measured by fluorescent dye (Hoechst 33342); format: in vivo; conditions: 50 mg/kg intraperitoneally, dye injected 24 hours after drug treatment
Experimental: (b) Activity Against Tumour Vasculature Measured by Fluorescent Dye
Tumour functional vascular volume in CaNT tumour-bearing mice was measured using the fluorescent dye Hoechst 33342 according to the method of Smith et al (Brit. Jnl. Cancer 1988, 57, 247-253). Five animals were used in control and treated groups. The fluorescent dye was dissolved in saline at 6.25 mg/ml and injected intravenously at 10 mg/kg 24 hours after intraperitoneal drug treatment. One minute later, animals were killed and tumours excised and frozen; 10 μm sections were cut at 3 different levels and observed under UV illumination using an Olympus microscope equipped with epifluorescence. Blood vessels were identified by their fluorescent outlines and vascular volume was quantified using a point scoring system based on that described by Chalkley, (Jnl. Natl. Cancer Inst., 1943, 4, 47-53). All estimates were based on counting a minimum of 100 fields from sections cut at the 3 different levels.

[3] = system: mammalian tubulin; conditions: O. Boye et al Med. Chem. Res., 1991, 1, 142-150; read-out: IC50 in a tubulin polymerisation assay; cited from earlier work

Structure (SMILES) | necrosis score (0 = no significant change, 10 = 91-100% necrosis) [1] | decrease in perfused vascular volume relative to control [2] [%] | IC50 [3] [µM]
COc1cc2c(c(OC)c1OC)-c1ccc(OC(=O)CCCC(=O)N3CCN(C(C)=O)CC3)cc1[C@@H](NC(C)=O)CC2 [Example 1, (5S)-5-Acetylamino-9,10,11-trimethoxy-6,7-dihydro-5H-dibenzo[a,c]cyclohepten-3-yl 5-(4-acetylpiperazin-1-yl)-5-oxopentanoate] | 6.6 |  | 
COc1cc2c(c(OC)c1OC)-c1ccc(N)cc1C(NC(C)=O)CC2 (stereo not drawn) [N-[3-amino-9,10,11-trimethoxy-6,7-dihydro-5H-dibenzo[a,c]cyclohepten-5-yl]acetamide] |  | 88 | 58

From patent US20050277627A1, “Colchinol derivatives as vascular damaging agents” (priority 2000, published 2005)
